Type in all cases: cell-based
Assay [1] deals with T1, human TLR7 (Homo sapiens, UniProt Q9NYK1).
T1 construct: host or cells: HEK-Blue cells
T1 sequence (Q9NYK1 27-1049): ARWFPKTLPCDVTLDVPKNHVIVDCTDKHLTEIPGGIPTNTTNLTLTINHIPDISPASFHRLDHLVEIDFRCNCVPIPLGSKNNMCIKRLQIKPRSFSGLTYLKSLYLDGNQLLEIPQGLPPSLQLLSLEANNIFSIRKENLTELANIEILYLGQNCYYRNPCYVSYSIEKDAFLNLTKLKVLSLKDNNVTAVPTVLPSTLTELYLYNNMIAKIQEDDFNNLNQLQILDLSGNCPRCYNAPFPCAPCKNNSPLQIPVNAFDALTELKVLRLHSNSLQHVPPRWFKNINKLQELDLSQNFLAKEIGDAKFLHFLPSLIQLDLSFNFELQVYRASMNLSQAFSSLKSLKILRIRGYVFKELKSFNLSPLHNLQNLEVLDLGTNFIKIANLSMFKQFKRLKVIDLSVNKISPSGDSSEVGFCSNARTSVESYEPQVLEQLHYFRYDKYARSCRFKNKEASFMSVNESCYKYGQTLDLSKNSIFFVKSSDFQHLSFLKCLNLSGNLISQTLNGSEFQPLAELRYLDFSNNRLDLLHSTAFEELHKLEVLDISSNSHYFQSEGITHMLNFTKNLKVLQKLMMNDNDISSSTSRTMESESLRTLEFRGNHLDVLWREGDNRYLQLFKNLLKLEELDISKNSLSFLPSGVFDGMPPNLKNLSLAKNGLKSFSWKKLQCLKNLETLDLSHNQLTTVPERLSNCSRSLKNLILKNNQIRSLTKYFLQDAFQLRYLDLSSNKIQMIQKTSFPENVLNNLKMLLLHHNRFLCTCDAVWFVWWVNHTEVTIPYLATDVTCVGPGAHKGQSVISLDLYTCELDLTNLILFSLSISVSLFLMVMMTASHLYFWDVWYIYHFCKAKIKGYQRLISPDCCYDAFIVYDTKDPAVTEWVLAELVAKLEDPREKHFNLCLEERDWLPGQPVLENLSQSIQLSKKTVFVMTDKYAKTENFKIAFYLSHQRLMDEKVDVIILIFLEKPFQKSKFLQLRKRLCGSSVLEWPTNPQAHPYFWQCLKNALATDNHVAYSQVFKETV
Put plainly: TLR7 inhibition reporter assay (HEK-Blue cells, SEAP reporter). The note with it: HEK-Blue cells overexpressing human TLR7; stimulated with gardiquimod 7.5 μM; SEAP read after 22 hour; dose range 0.05 nM-50 μM. The gist of the method: (§1)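 HEK-Blue cells with NF-κB/AP-1-driven SEAP pre-treated 30 min with compounds (0.05 nM-50 μM), then stimulated with gardiquimod 7.5 μM (TLR7), R848 15.9 μM (TLR8) or ODN2006 5 nM (TLR9). SEAP read after 22 h at 37° C; % inhibition relative to agonist+DMSO and reference-inhibitor wells.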
(A reporter such as luciferase makes a cellular process visible.)

Assay [2] deals with T2, human TLR8 (Homo sapiens, UniProt Q9NR97).
T2 construct: host or cells: HEK-Blue cells
T2 sequence (Q9NR97 27-1041): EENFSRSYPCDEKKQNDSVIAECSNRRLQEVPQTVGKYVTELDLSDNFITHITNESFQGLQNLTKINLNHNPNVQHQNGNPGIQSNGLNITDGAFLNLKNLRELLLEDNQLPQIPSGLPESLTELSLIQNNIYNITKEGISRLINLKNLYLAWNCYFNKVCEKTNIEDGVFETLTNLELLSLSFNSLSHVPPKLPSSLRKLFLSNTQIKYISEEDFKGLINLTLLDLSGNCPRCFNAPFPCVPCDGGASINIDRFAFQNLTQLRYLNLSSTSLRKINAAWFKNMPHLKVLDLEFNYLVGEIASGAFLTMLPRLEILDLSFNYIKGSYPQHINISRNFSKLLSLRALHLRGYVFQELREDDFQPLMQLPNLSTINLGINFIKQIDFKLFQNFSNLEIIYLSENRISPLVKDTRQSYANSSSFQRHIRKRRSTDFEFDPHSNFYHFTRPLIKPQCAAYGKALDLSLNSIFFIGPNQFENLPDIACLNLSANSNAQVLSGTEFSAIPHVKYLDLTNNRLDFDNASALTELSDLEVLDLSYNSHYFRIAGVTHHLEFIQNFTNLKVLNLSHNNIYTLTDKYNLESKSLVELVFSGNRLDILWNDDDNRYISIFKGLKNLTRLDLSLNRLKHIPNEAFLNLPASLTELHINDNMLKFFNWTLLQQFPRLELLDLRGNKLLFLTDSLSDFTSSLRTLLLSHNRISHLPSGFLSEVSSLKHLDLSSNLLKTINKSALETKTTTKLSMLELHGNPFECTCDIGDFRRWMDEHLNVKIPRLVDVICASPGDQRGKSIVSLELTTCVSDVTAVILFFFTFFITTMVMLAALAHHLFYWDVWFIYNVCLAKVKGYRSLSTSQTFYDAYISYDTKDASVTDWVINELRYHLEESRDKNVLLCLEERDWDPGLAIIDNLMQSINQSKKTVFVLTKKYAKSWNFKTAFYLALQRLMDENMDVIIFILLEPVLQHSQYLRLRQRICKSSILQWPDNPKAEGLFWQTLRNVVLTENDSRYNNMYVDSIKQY
Put plainly: TLR8 inhibition reporter assay (HEK-Blue cells, SEAP reporter). The note with it: HEK-Blue cells overexpressing human TLR8; stimulated with R848 15.9 μM; SEAP read after 22 hour; dose range 0.05 nM-50 μM. The gist of the method: as §1

The target in assay [3] is T3, human TLR9 (Homo sapiens, UniProt Q9NR96).
T3 construct: host or cells: HEK-Blue cells
T3 sequence (Q9NR96 26-1032): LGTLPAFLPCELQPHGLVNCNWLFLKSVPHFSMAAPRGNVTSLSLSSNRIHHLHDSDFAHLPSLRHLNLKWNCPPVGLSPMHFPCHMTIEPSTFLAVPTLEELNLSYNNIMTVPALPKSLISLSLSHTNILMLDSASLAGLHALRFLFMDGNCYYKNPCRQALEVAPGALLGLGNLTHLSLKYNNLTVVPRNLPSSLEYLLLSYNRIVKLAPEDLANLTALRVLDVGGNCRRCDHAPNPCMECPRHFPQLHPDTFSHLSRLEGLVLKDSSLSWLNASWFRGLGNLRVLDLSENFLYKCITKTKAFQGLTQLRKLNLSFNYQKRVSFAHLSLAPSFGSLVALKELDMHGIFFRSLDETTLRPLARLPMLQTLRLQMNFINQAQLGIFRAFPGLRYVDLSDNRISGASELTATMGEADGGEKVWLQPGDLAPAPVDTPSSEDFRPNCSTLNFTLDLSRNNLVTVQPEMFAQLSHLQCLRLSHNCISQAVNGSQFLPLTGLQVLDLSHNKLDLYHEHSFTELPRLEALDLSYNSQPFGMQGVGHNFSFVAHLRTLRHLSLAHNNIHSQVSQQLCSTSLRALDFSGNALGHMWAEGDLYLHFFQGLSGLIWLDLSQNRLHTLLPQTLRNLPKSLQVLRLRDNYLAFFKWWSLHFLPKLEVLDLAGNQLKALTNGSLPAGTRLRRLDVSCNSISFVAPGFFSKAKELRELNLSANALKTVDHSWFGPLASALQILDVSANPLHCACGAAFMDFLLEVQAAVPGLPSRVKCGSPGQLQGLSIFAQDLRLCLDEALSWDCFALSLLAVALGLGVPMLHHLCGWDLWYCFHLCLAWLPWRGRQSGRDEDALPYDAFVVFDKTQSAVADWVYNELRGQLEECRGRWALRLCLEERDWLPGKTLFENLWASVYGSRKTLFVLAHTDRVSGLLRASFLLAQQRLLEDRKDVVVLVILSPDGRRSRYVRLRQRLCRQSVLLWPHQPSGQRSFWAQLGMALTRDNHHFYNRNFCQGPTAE
Put plainly: TLR9 inhibition reporter assay (HEK-Blue cells, SEAP reporter). The note with it: HEK-Blue cells overexpressing human TLR9; stimulated with ODN2006 5 nM; SEAP read after 22 hour; dose range 0.05 nM-50 μM. The gist of the method:
as §1

With `CCc1c(-c2ccc(S(C)(=O)=O)cc2)c(=O)[nH]c2ccc(-c3ccc(N4CCN(C(C)C)CC4)cc3)cc12` [Example 84, 4-ethyl-3-(4-methanesulfonylphenyl)-6-{4-[4-(propan-2-yl)piperazin-1-yl]phenyl}-1,2-dihydroquinolin-2-one], the IC50 in assay [1] amounted to 2.32 µM; in assay [2], 0.672 µM; in assay [3], 0.389 µM.
The like results for `CC(C)N1CCN(c2ccc(-c3ccc4[nH]c(=O)c(-c5ccc(C(=O)N6CCOCC6)cc5)cc4c3)cc2)CC1` [Example 55, 3-[4-(morpholine-4-carbonyl)phenyl]-6-{4-[4-(propan-2-yl)piperazin-1-yl]phenyl}-1,2-dihydroquinolin-2-one] were, in that order, at least 50 µM, at least 50 µM and 0.382 µM.
The like results for `COC(=O)c1ccc(-c2cc3cc(-c4ccc(N5CCN(C(C)C)CC5)cc4)ccc3[nH]c2=O)cc1` [Example 28, methyl 4-(2-oxo-6-{4-[4-(propan-2-yl)piperazin-1-yl]phenyl}-1,2-dihydroquinolin-3-yl)benzoate] were, in that order, at least 50 µM, at least 50 µM and 2.28 µM.
The like results for `CC(C)N1CCN(c2ccc(-c3ccc4[nH]c(=O)c(-c5cc(F)c(F)cc5F)cc4c3)cc2)CC1` [Example 10, 6-{4-[4-(propan-2-yl)piperazin-1-yl]phenyl}-3-(2,4,5-trifluorophenyl)-1,2-dihydroquinolin-2-one] were, in that order, at least 50 µM, at least 50 µM and 0.118 µM.
For the compound `CCCC(=O)Nc1ccc(-c2cc3cc(-c4ccc(N5CCN(C(C)C)CC5)cc4)ccc3[nH]c2=O)cc1` [Example 21, N-[4-(2-oxo-6-{4-[4-(propan-2-yl)piperazin-1-yl]phenyl}-1,2-dihydroquinolin-3-yl)phenyl]butanamide], the IC50 in assay [1] is at least 50 µM; in assay [2], at least 50 µM; in assay [3] it was 0.214 µM.
With `CNC(=O)c1ccc(-c2cc3cc(-c4ccc(N5CCN(C(C)C)CC5)cc4)ccc3[nH]c2=O)cc1` [Example 54, N-methyl-4-(2-oxo-6-{4-[4-(propan-2-yl)piperazin-1-yl]phenyl}-1,2-dihydroquinolin-3-yl)benzamide], the IC50 is 13 µM in assay [1], at least 50 µM in assay [2] and 0.379 µM in assay [3].
`CC(C)N1CCC(c2ccc(-c3ccc4c(c3)cc(-c3ccc(N(C)C)cc3)c(=O)n4C)cc2)CC1` [Example 96, 3-[4-(dimethylamino)phenyl]-1-methyl-6-{4-[1-(propan-2-yl)piperidin-4-yl]phenyl}-1,2-dihydroquinolin-2-one]: the values for the IC50 in assay [1], in assay [2] and in assay [3] were 17.3 µM, at least 50 µM and 1.43 µM, respectively.
Regarding `CC(C)N1CCN(c2ccc(-c3ccc4[nH]c(=O)c(-c5ccccc5F)cc4c3)cc2)CC1` [Example 42, 3-(2-fluorophenyl)-6-{4-[4-(propan-2-yl)piperazin-1-yl]phenyl}-1,2-dihydroquinolin-2-one], the figures for the IC50 in assay [1], in assay [2] and in assay [3] were 2.14 µM, 2.47 µM and 0.427 µM, respectively.
The like results for `CC(C)N1CCN(c2ccc(-c3ccc4[nH]c(=O)c(-c5cccnc5)cc4c3)cc2)CC1` [Example 32, 6-{4-[4-(propan-2-yl)piperazin-1-yl]phenyl}-3-(pyridin-3-yl)-1,2-dihydroquinolin-2-one] were, in that order, 0.418 µM, 0.017 µM and 0.293 µM.
As for `Cn1c(=O)c(-c2ccccc2)cc2cc(-c3ccc(C4CCN(C5COC5)CC4)cc3)ccc21` [Example 100, 1-methyl-6-{4-[1-(oxetan-3-yl)piperidin-4-yl]phenyl}-3-phenyl-1,2-dihydroquinolin-2-one], the IC50 is at least 50 µM in assay [1], 1.9 µM in assay [2] and 2.27 µM in assay [3].
With `CC(C)N1CCN(c2ccc(-c3ccc4[nH]c(=O)c(-c5ccc(N(C)C)cc5)cc4c3)cc2)CC1` [Example 9, 3-[4-(dimethylamino)phenyl]-6-{4-[4-(propan-2-yl)piperazin-1-yl]phenyl}-1,2-dihydroquinolin-2-one], the IC50 was 3.07 µM in assay [1], 13.7 µM in assay [2] and 0.096 µM in assay [3].
The like results for `O=c1[nH]c2ccc(-c3ccc(C4CCN(C5COC5)CC4)cc3)cc2cc1-c1ccc2nccnc2c1` [Example 94, 6-{4-[1-(oxetan-3-yl)piperidin-4-yl]phenyl}-3-(quinoxalin-6-yl)-1,2-dihydroquinolin-2-one] were, in that order, at least 50 µM, at least 50 µM and 0.689 µM.
Take `CC(C)N1CCC(N2CCC(c3ccc4[nH]c(=O)c(-c5ccccc5)cc4c3)CC2)CC1` [Example 64, 3-phenyl-6-[1′-(propan-2-yl)-[1,4′-bipiperidine]-4-yl]-1,2-dihydroquinolin-2-one]: the figures for the IC50 in assay [1], in assay [2] and in assay [3] were 1.48 µM, at least 50 µM and 0.03 µM, respectively.

What is called IC50 is the midpoint of a concentration-inhibition curve. A lower IC50 goes with inhibition by little substance.
